Experimental data taken from patent US7094524B2, “Thermally development imaging materials having backside stabilizers” (Eastman Kodak Company, priority 2003, dated 2006).

Test: pH of 0.005 molar solution in 15% methanol/85% water
Assay type: physicochemical
Excerpt: TABLE I also includes vapor pressure (VP) and pKa values for the various backside stabilizers.

Compound | pH
c1ccc(CN(Cc2ccccc2)Cc2ccccc2)cc1 [AB-9] | 8.6
c1ccc(Nc2ccccn2)nc1 [AB-7] | 8.5
CN(C)C(=N)N(C)C [AB-3] | 11.8
C1CNCCN1 [AB-1] | 10.4
C1CCC2=NCCCN2CC1 [AB-6, 1,8-diazabicyclo[5.4.0]undec-7-ene] | 11.8
C1CN2CCN1CC2 [AB-2] | 9.8
N=C(Nc1ccccc1)Nc1ccccc1 [AB-8] | 10.6
OCCN(CCO)CCO [AB-5] | 9.1
